Common to all, as to experiment: Radiolabeled ATP kinase assay, panel of 371 kinases (Table S6)
Holding throughout (format): biochemical

In test [1] the target is T1, panel of 371 human kinases (Homo sapiens, UniProt Q14164).
T1 construct: purchased Reaction Biology Corp
As to conditions: IKKe/IKBKE; 0.1 μM; 10 μM ATP; read-out: % Enzyme Activity (relative to DMSO controls). The source says: (§1) ; FIG. 38C). […]. Further targeted analyses, such as genetic knock-down or knock-out, may be warranted to parse the role of these additional kinases in our model of neurodegeneration.

For test [2], the target named is T2, panel of 371 human kinases (Homo sapiens, UniProt P51813).
T2 construct: purchased Reaction Biology Corp
As to conditions: BMX/ETK; 0.1 μM; 10 μM ATP; read-out: % Enzyme Activity (relative to DMSO controls).
Text: as §1

Test [3] has as its target T3, panel of 371 human kinases (Homo sapiens, UniProt Q9HAZ1).
T3 construct: purchased Reaction Biology Corp
As to conditions: CLK4; 0.1 μM; 10 μM ATP; read-out: % Enzyme Activity (relative to DMSO controls).
Text: as §1

In test [4] the target is T4, panel of 371 human kinases (Homo sapiens, UniProt Q9Y2H1).
T4 construct: purchased Reaction Biology Corp
As to conditions: STK38/NDR2; 0.1 μM; 10 μM ATP; read-out: % Enzyme Activity (relative to DMSO controls).
Text: as §1

For test [5], the target named is T5, panel of 371 human kinases (Homo sapiens, UniProt O00444).
T5 construct: purchased Reaction Biology Corp
As to conditions: PLK4/SAK; 0.1 μM; 10 μM ATP; read-out: % Enzyme Activity (relative to DMSO controls).
Text: as §1

In test [6] the target is T6, panel of 371 human kinases (Homo sapiens, UniProt Q6PHR2).
T6 construct: purchased Reaction Biology Corp
As to conditions: ULK3; 0.1 μM; 10 μM ATP; read-out: % Enzyme Activity (relative to DMSO controls).
Text: as §1

The target of test [7] is T7, panel of 371 human kinases (Homo sapiens, UniProt Q99759).
T7 construct: purchased Reaction Biology Corp
As to conditions: MEKK3; 0.1 μM; 10 μM ATP; read-out: % Enzyme Activity (relative to DMSO controls).
Text: as §1

Test [8] has as its target T8, panel of 371 human kinases (Homo sapiens, UniProt P23443).
T8 construct: purchased Reaction Biology Corp
As to conditions: p70S6K/RPS6KB1; 0.1 μM; 10 μM ATP; read-out: % Enzyme Activity (relative to DMSO controls).
Text: as §1

Test [9] concerns the target T9, panel of 371 human kinases (Homo sapiens, UniProt Q9UF33).
T9 construct: purchased Reaction Biology Corp
As to conditions: EPHA6; 0.1 μM; 10 μM ATP; read-out: % Enzyme Activity (relative to DMSO controls).
Text: as §1

The target of test [10] is T10, panel of 371 human kinases (Homo sapiens, UniProt P21802).
T10 construct: purchased Reaction Biology Corp
As to conditions: FGFR2; 0.1 μM; 10 μM ATP; read-out: % Enzyme Activity (relative to DMSO controls).
Text: as §1

Test [11] addresses T11, panel of 371 human kinases (Homo sapiens, UniProt Q8IVH8).
T11 construct: purchased Reaction Biology Corp
T11 sequence (Q8IVH8 1-894): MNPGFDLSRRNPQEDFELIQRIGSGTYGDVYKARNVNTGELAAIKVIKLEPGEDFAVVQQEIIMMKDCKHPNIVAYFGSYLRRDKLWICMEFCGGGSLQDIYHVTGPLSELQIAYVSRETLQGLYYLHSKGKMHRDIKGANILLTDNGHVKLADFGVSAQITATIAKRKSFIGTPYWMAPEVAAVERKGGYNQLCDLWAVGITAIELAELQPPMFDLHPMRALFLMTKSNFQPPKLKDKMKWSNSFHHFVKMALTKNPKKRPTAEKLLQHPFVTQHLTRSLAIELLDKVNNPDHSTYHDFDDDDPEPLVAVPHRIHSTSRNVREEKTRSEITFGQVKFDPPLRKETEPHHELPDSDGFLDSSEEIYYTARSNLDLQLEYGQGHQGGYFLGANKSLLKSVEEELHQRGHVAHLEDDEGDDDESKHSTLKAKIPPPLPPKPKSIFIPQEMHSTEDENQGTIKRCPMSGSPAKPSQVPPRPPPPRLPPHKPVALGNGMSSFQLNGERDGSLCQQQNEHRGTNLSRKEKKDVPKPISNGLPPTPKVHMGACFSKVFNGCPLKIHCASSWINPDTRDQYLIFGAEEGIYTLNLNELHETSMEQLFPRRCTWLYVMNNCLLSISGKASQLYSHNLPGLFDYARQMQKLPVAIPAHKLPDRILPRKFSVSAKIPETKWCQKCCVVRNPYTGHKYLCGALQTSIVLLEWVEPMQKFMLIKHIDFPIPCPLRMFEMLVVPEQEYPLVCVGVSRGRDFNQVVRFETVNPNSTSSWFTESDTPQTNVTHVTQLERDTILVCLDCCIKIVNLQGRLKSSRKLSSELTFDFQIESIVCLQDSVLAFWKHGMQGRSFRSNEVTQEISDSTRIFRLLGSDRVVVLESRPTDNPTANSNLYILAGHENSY
As to conditions: for remaining activity at 0.1 µM: GLK/MAP4K3, 10 μM ATP, read-out: % Enzyme Activity (relative to DMSO controls).
Text: as §1

Test [12] has as its target T12, panel of 371 human kinases (Homo sapiens, UniProt Q8IYT8).
T12 construct: purchased Reaction Biology Corp
As to conditions: ULK2; 0.1 μM; 10 μM ATP; read-out: % Enzyme Activity (relative to DMSO controls).
Text: as §1

The target in test [13] is T13, panel of 371 human kinases (Homo sapiens, UniProt P45984).
T13 construct: purchased Reaction Biology Corp
As to conditions: JNK2; 0.1 μM; 10 μM ATP; read-out: % Enzyme Activity (relative to DMSO controls).
Text: as §1

Test [14] deals with T14, panel of 371 human kinases (Homo sapiens, UniProt P23458).
T14 construct: purchased Reaction Biology Corp
As to conditions: JAK1; 0.1 μM; 10 μM ATP; read-out: % Enzyme Activity (relative to DMSO controls).
Text: as §1

In test [15] the target is T15, panel of 371 human kinases (Homo sapiens, UniProt P49761).
T15 construct: purchased Reaction Biology Corp
As to conditions: CLK3; 0.1 μM; 10 μM ATP; read-out: % Enzyme Activity (relative to DMSO controls).
Text: as §1

Test [16] addresses T16, panel of 371 human kinases (Homo sapiens, UniProt Q6VAB6).
T16 construct: purchased Reaction Biology Corp
As to conditions: KSR2; 0.1 μM; 10 μM ATP; read-out: % Enzyme Activity (relative to DMSO controls).
Text: as §1

Test [17] concerns the target T17, panel of 371 human kinases (Homo sapiens, UniProt Q5VT25).
T17 construct: purchased Reaction Biology Corp
As to conditions: MRCKa/CDC42BPA; 0.1 μM; 10 μM ATP; read-out: % Enzyme Activity (relative to DMSO controls).
Text: as §1

The target in test [18] is T18, panel of 371 human kinases (Homo sapiens, UniProt Q9H093).
T18 construct: purchased Reaction Biology Corp
As to conditions: SNARK/NUAK2; 0.1 μM; 10 μM ATP; read-out: % Enzyme Activity (relative to DMSO controls).
Text: as §1

The source of these data is patent publication US12227500B2, “Substituted pyrrolo[2,3-b]pyridines for suppressing toxic endoplasmic reticulum stress” (THE TRUSTEES OF COLUMBIA UNIVERSITY IN THE CITY OF NEW YORK, priority 2018, dated 2025).

Molecules are shown by their SMILES.

T4 sequence (Q9Y2H1 whole entry): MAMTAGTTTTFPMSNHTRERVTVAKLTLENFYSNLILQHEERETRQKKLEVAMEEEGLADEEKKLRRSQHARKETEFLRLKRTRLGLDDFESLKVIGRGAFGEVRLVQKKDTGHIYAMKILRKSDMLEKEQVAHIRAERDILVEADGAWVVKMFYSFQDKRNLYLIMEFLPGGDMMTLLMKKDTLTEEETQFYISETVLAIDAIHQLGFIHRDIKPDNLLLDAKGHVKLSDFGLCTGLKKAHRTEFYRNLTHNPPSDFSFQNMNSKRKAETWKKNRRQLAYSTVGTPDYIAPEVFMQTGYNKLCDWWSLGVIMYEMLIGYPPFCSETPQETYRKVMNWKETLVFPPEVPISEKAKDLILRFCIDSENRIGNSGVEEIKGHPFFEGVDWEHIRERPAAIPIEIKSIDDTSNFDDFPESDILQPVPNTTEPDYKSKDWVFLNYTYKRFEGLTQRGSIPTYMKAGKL
T9 sequence (Q9UF33 23-1036): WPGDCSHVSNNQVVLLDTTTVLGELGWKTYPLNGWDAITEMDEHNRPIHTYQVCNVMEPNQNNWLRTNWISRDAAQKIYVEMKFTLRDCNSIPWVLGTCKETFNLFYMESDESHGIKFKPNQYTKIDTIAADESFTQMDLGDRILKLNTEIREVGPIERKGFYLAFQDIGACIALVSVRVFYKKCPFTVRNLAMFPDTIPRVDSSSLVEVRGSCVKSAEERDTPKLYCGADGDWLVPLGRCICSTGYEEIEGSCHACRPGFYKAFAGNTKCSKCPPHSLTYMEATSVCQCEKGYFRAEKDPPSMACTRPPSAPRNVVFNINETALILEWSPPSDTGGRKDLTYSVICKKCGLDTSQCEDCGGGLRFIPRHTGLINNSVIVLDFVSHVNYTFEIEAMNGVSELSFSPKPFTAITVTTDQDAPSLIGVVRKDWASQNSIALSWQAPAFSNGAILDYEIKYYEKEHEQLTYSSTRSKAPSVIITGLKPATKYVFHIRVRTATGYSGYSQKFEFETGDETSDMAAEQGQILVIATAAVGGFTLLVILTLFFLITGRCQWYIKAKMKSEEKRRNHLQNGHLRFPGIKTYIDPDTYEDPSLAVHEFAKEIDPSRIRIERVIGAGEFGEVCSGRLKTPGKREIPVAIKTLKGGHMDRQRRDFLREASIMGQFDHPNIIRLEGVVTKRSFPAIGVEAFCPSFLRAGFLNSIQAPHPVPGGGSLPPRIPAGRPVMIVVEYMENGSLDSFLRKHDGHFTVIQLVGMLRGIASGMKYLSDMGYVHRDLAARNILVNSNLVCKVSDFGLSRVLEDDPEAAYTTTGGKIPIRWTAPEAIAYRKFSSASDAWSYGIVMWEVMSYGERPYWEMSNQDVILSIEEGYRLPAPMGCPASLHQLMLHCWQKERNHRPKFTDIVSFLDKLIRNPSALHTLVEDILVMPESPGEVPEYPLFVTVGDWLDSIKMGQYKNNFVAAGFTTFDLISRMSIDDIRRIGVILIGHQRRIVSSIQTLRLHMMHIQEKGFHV
T1 sequence (Q14164 whole entry): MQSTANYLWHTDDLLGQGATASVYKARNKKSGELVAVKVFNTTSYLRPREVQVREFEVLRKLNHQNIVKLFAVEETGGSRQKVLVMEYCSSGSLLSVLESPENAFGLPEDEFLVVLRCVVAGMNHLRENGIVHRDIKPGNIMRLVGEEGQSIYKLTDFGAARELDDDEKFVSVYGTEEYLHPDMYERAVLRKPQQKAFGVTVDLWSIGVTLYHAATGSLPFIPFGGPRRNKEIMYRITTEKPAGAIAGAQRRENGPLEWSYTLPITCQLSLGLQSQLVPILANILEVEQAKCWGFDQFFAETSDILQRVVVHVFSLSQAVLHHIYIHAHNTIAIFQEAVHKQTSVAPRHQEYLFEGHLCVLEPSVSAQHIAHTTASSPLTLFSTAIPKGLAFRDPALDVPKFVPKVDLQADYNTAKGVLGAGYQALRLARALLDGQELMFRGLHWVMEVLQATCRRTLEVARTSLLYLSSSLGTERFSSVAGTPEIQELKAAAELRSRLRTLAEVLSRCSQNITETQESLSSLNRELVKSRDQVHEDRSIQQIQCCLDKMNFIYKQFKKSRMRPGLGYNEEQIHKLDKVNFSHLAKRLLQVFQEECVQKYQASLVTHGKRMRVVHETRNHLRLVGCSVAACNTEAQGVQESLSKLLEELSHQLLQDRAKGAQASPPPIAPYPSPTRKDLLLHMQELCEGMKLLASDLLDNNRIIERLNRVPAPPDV
T7 sequence (Q99759 whole entry): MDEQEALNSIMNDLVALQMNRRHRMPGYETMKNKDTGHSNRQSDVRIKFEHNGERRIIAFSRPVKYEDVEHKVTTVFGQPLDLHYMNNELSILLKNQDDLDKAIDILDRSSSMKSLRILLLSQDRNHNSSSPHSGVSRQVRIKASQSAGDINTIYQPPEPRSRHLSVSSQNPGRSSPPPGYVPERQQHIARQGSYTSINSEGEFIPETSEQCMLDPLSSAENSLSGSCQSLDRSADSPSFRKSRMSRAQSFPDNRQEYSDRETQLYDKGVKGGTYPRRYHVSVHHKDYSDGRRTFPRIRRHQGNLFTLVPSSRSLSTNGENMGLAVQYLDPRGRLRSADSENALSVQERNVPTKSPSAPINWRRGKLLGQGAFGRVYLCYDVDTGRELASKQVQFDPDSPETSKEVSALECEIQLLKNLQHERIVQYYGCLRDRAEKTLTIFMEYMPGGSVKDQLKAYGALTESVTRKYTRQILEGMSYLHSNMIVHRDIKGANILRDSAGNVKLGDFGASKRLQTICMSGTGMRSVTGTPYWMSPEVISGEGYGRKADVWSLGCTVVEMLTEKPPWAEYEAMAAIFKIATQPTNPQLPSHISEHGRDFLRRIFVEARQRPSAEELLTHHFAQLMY
T12 sequence (Q8IYT8 whole entry): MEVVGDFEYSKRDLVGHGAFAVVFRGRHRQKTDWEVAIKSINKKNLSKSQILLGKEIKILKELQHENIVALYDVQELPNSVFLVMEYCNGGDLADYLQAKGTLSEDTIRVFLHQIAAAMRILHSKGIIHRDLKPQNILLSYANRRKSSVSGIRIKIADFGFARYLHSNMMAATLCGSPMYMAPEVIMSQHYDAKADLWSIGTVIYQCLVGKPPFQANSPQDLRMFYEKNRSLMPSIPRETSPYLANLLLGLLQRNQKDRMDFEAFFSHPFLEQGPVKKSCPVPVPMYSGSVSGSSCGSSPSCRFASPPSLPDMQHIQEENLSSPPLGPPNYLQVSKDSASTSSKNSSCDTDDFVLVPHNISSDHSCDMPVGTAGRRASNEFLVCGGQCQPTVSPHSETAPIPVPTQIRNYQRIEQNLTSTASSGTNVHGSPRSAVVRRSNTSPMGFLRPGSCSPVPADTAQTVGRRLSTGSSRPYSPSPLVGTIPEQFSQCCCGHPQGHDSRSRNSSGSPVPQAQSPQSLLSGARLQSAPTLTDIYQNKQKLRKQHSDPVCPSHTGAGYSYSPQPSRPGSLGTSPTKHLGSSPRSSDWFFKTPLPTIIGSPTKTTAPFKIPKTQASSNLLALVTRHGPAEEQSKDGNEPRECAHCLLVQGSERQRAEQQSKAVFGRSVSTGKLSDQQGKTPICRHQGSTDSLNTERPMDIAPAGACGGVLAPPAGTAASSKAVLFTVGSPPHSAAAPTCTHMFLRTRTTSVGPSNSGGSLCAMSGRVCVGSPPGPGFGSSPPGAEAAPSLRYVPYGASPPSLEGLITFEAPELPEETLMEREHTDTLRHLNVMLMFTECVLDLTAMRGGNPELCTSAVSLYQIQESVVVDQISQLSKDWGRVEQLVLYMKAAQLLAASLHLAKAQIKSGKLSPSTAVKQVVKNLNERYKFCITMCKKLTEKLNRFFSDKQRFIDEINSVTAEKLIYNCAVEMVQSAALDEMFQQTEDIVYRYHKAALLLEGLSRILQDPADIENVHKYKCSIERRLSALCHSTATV
T13 sequence (P45984 whole entry): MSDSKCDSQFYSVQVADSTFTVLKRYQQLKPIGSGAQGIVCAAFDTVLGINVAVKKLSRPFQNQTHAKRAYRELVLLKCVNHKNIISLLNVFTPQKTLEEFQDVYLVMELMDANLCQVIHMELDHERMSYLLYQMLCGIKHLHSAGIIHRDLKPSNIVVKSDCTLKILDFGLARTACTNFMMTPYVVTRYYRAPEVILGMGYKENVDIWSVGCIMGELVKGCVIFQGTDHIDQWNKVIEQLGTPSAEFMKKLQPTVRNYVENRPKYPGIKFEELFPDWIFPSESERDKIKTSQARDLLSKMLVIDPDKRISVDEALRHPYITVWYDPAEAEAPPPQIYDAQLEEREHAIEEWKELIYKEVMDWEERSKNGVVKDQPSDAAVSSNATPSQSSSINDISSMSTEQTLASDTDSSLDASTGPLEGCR
T3 sequence (Q9HAZ1 whole entry): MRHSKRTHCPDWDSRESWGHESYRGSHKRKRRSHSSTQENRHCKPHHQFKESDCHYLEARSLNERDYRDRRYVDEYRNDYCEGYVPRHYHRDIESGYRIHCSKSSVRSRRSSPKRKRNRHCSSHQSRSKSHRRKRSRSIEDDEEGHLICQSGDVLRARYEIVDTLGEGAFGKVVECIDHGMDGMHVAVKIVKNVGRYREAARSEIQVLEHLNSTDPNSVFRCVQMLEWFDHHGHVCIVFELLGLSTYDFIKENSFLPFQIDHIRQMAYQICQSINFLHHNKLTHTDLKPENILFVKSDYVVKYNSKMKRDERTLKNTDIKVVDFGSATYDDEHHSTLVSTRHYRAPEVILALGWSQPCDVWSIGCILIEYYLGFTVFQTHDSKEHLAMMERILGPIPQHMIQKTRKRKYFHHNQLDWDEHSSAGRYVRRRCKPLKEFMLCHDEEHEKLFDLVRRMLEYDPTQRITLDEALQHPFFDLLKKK

In the case of `OCCN1CCN(Cc2ccc(-c3cnc4[nH]cc(-c5cccc(Cl)c5)c4c3)cc2)CC1` [Compound 12k, 2-(4-(4-(3-(3-Chlorophenyl)-1H-pyrrolo[2,3-b]pyridin-5-yl)benzyl)piperazin-1-yl)ethan-1-ol], the remaining activity at 0.1 µM turned out to be 63.8% in test [1]; 103% in [2]; 71.9% in [3]; 77.8% in test [4]; 93.4% in [5]; 41.5% in test [6]. Moreover, the remaining activity at 0.1 µM is 94.6% in [7]; 99.3% in test [8]; 98.2% in test [9]; 89.5% in test [10]; 7.18% in test [11]; 36% in test [12]. In addition, the remaining activity at 0.1 µM was determined as 97% in [13]; 90.5% in [14]; 91% in [15]; 106% in test [16]; 96.1% in test [17]; 59.5% in [18]. Further, the “fold change in GLK activity following 12k exposure relative to 1” value in test [11] (0.025 μM) worked out at 6.84 fold.
In the case of `CN1CCN(Cc2ccc(-c3cnc4[nH]cc(-c5ccc6[nH]ccc6c5)c4c3)cc2)CC1` [Compound 1, 3-(1H-Indol-5-yl)-5-(4-((4-methylpiperazin-1-yl)methyl)phenyl)-1H-pyrrolo[2,3-b]pyridine, reference compound], the remaining activity at 0.1 µM in test [1] came to 82.5%; in [2], 101%; in test [3], 94.5%; in test [4], 87.7%; in test [5], 97%; in [6], 70%. Moreover, the remaining activity at 0.1 µM in test [7] amounted to 91.6%; in [8], 93.2%; in test [9], 106%; in test [10], 79.9%; in test [11] it was 49.2%; in [12] it was 80.4%. Besides, the remaining activity at 0.1 µM in test [13] came to 99.4%; in test [14] it was 103%; in test [15], 95.3%; in [16] it was 102%; in test [17], 105%; in [18], 82.8%.
